# Experimental data: patent US6923921B2, “Fluorinated polyether compositions” (3M Innovative Properties Company, priority 2002, dated 2005)
# Experiment: Toxicokinetic study with HFPO alcohols: oral absorption and serum elimination (total fluorine in serum)
# Parameters: species or system Male Sprague-Dawley rats
# Settings: rat, in vivo, 30 mg/kg
# Protocol: The objective of this study was to assess the oral absorption and serum elimination half-life of six hexafluoropropylene oxide (HFPO)-alcohol oligomers (CF3CF2CF2O(CF(CF3)CF2O)xCF(CF3)C(O)N(H)CH2CH2OH), or mixtures thereof, in rats. Male Sprague-Dawley rats (N=4 to 6 rats per dose group) received a single 30 mg/kg dose of the various HFPO alcohol oligomers in propylene glycol by oral gavage at a volume of 5 ml/kg. Necropsies were performed on day one and day four post dose.
# Serum samples obtained at necropsy were analyzed for total fluorine based on published methods (1) using an Antek 9000F Fluoride Analysis System. The method was based on oxy-pyrohydrolysis at 1050° C., whereby the C—F bond is broken and the resulting product, hydrogen fluoride (HF), is trapped in a buffer solution and measured with the fluoride ion electrode. The total fluorine levels obtained by this method reflect the total organic fluorine in the serum samples and are reported in Table 2.
Substance,"Amount of Total F ppm (SD) in serum, Day 1 Post-Dose","Amount of Total F ppm (SD) in serum, Day 4 Post-Dose",apparent half-life serum fluorine levels
CF3CF2CF2O(CF(CF3)CF2O)xCF(CF3)C(O)N(H)CH2CH2OH [Example 2],0.15 (0.00) ppm,0.15 (0.00) ppm,–
CF3CF2CF2O(CF(CF3)CF2O)xCF(CF3)C(O)N(H)CH2CH2OH [Example 3],0.15 (0.00) ppm,0.15 (0.00) ppm,–
CF3CF2CF2O(CF(CF3)CF2O)xCF(CF3)C(O)N(H)CH2CH2OH [Example C1],7.55 (1.34) ppm,3.90 (0.00) ppm,approximately four
